Legend:
Type in all cases: biochemical
JAK1 = target: T1, JAK1 (Homo sapiens, UniProt P23458); test: Z'-LYTE kinase assay JAK1
T1 construct: 5 μl of catalytic domain recombinant Kinase enzyme+Tyr peptide substrate (Invitrogen, CA); purchased Invitrogen
Protocol: (§1) JAK and TYK2 tyrosine phosphorylation activity is measured using the Z′-LYTE™ Technology developed by Invitrogen Corporation (Carlsbad, Calif.). For JAK1, JAK2 and JAK3 the Z′-LYTE™ Kinase Assay Kit-Tyr6 Peptide (part number PV4122) was used. For TYK2 the Z′-LYTE™ Kinase Assay Kit-Tyr6 Peptide (part number PV3192) was used. The Z′-LYTE™ biochemical assay employs a fluorescence resonance energy transfer (FRET) coupled-enzyme format and is based on the differential sensitivity of phosphorylated and non-phosphorylated peptides to proteolitic cleavage. The assay uses a synthetic peptide substrate that is labelled with a donor fluorophore (coumarin) and an acceptor fluorophore (fluorescein) that make up a FRET pair. In the primary reaction (the Kinase Reaction), the kinase transfers the γ-phosphate of ATP to a single tyrosine residue on the substrate, while the presence of a kinase inhibitor in the primary reaction suppresses phosphorylation. In the secondary reaction (the Development Reaction), a site-specific protease (the Development Reagent) is added. The development buffer quenches the Kinase Reaction, while the protease recognizes and cleaves non-phosphorylated Z′-LYTE™ peptide substrate. Cleavage disrupts FRET between the donor and acceptor fluorophores on the non-phosphoryleted substrate, while uncleaved, phosphorylated substrate maintains FRET.
(§2) To test the ability of candidate molecules to inhibit JAK tyrosine phosphorylation activity, molecules are reconstituted in 100% DMSO and serially diluted 1:10 in polypropylene v-bottom microtiter plates. The candidate molecules are then diluted 1:25 into kinase buffer and 2.5 μl transferred into duplicate wells of a 384 well low volume black microtiter assay plate (Corning, USA). The final DMSO concentration in the assay is 1%. The kinase reaction contains 2.5 μl of a candidate molecule, 5 μl of catalytic domain recombinant Kinase enzyme+Tyr peptide substrate (Invitrogen, CA) and 2.5 μl ATP (Invitrogen, CA). The kinase reaction is allowed to procede for 1 hour at room temperature. The protease reaction is initiated by the addition of 5 μl Development Reagent (Invitrogen, CA). After 1 hour incubation at room temperature the fluorescence is measured using a FlexStation plate reader (Molecular Devices, Sunnyvale, Calif.).

JAK2 = target: T2, JAK2 (Homo sapiens, UniProt O60674); test: Z'-LYTE kinase assay JAK2
T2 construct: 5 μl of catalytic domain recombinant Kinase enzyme+Tyr peptide substrate (Invitrogen, CA); purchased Invitrogen
Protocol: as §1, §2

JAK3 = target: T3, JAK3 (Homo sapiens, UniProt P52333); test: Z'-LYTE kinase assay JAK3
T3 construct: 5 μl of catalytic domain recombinant Kinase enzyme+Tyr peptide substrate (Invitrogen, CA); purchased Invitrogen
Protocol: as §1, §2

T1 sequence (P23458 875-1153 limits assumed): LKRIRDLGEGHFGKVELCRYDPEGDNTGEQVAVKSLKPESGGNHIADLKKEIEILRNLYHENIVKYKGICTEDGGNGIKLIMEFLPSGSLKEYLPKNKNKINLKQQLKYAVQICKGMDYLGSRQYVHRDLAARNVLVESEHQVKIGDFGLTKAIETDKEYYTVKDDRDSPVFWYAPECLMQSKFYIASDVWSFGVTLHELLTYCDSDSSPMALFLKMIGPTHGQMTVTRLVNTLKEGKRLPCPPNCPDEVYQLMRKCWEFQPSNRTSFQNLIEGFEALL
T3 sequence (P52333 822-1111 limits assumed): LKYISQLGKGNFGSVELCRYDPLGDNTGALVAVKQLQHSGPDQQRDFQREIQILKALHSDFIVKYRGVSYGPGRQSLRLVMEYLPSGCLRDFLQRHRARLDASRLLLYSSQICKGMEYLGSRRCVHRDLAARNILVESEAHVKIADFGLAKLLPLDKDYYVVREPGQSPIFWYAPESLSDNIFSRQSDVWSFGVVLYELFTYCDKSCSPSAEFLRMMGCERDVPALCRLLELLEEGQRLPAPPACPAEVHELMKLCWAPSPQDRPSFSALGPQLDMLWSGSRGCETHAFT
T2 sequence (O60674 849-1124 limits assumed): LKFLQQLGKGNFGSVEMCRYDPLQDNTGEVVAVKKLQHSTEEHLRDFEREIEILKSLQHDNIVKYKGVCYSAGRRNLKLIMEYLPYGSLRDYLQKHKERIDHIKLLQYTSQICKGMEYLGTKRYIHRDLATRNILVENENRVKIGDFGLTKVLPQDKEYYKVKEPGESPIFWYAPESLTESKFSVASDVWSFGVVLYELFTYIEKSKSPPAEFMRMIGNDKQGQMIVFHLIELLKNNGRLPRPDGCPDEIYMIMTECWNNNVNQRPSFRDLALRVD

SMILES: CN(C)S(=O)(=O)c1ccc(Nc2cc(NCc3cc(F)ccc3F)c(C(N)=O)cn2)cc1 [Example 98, 4-(2,5-difluorobenzylamino)-6-(4-(N,N-dimethylsulfamoyl)phenylamino)nicotinamide]
- IC50 (JAK1): > 1 µM
- IC50 (JAK2): 0.1 to 1 µM
- IC50 (JAK3): 0.01 to 0.1 µM

SMILES: NC(=O)c1cnc(Nc2cccc(C(=O)N3CCC3)c2)cc1NCc1cc(F)ccc1F [Example 99, 6-(3-(azetidine-1-carbonyl)phenylamino)-4-(2,5-difluorobenzylamino)nicotinamide]
- IC50 (JAK1): 0.1 to 1 µM
- IC50 (JAK2): 0.1 to 1 µM
- IC50 (JAK3): 0.001 to 0.01 µM

SMILES: COc1ccc(Nc2cc(NCc3cccc(F)c3F)c(C(N)=O)cn2)cc1 [Example 101, 4-(2,3-difluorobenzylamino)-6-(4-methoxyphenylamino)nicotinamide]
- IC50 (JAK1): > 1 µM
- IC50 (JAK2): > 1 µM
- IC50 (JAK3): 0.01 to 0.1 µM

SMILES: NC(=O)c1cnc(Nc2ccc(C3CCN(S(=O)(=O)C4CC4)CC3)cc2)cc1NCc1ccccc1F [Example 113, 6-(4-(1-(cyclopropylsulfonyl)piperidin-4-yl)phenylamino)-4-(2-fluorobenzylamino)nicotinamide]
- IC50 (JAK1): > 1 µM
- IC50 (JAK2): > 1 µM
- IC50 (JAK3): 0.01 to 0.1 µM

SMILES: N#CC1(C(=O)N2CCC(c3ccc(Nc4cc(NCc5ccccc5F)c(C(N)=O)cn4)cc3)CC2)CC1 [Example 118, 6-(4-(1-(1-cyanocyclopropanecarbonyl)piperidin-4-yl)phenylamino)-4-(2-fluorobenzylamino)nicotinamide]
- IC50 (JAK1): > 1 µM
- IC50 (JAK2): > 1 µM
- IC50 (JAK3): 0.01 to 0.1 µM

SMILES: NC(=O)c1cnc(Nc2cccc(C3CCNCC3)c2)cc1NCc1ccccc1F [Example 120, 4-(2-fluorobenzylamino)-6-(3-(piperidin-4-yl)phenylamino)nicotinamide]
- IC50 (JAK1): 0.1 to 1 µM
- IC50 (JAK2): 0.01 to 0.1 µM
- IC50 (JAK3): 0.001 to 0.01 µM

SMILES: CS(=O)(=O)N1CCC(c2cccc(Nc3cc(NCc4ccccc4F)c(C(N)=O)cn3)c2)CC1 [Example 121, 4-(2-fluorobenzylamino)-6-(3-(1-(methylsulfonyl)piperidin-4-yl)phenylamino)nicotinamide]
- IC50 (JAK1): 0.1 to 1 µM
- IC50 (JAK2): 0.1 to 1 µM
- IC50 (JAK3): 0.01 to 0.1 µM

SMILES: CC(=O)N1CCN(c2ccc(Nc3cc(N[C@H]4CC[C@@H](O)CC4)c(C(N)=O)cn3)cc2)CC1 [Example 123, 6-(4-(4-acetylpiperazin-1-yl)phenylamino)-4-((cis)-4-hydroxycyclohexylamino)nicotinamide]
- IC50 (JAK1): 0.1 to 1 µM
- IC50 (JAK2): 0.1 to 1 µM
- IC50 (JAK3): 0.01 to 0.1 µM

SMILES: CCC(=O)N1CCN(c2ccc(Nc3cc(NC4(c5ccccc5)CC4)c(C(N)=O)cn3)cc2)CC1 [Example 124, 4-(1-phenylcyclopropylamino)-6-(4-(4-propionylpiperazin-1-yl)phenylamino)nicotinamide]
- IC50 (JAK1): > 1 µM
- IC50 (JAK2): 0.1 to 1 µM
- IC50 (JAK3): 0.01 to 0.1 µM

SMILES: NC(=O)c1cnc(Nc2ccc(N3CCOCC3)cc2)cc1NC1(c2ccccc2)CC1 [Example 125, 6-(4-morpholinophenylamino)-4-(1-phenylcyclopropylamino)-nicotinamide]
- IC50 (JAK1): > 1 µM
- IC50 (JAK2): 0.1 to 1 µM
- IC50 (JAK3): 0.01 to 0.1 µM

SMILES: NC(=O)c1cnc(Nc2ccc(CN3CCOCC3)cc2)cc1NC1(c2ccccc2)CC1 [Example 127, 6-(4-(morpholinomethyl)phenylamino)-4-(1-phenylcyclopropylamino)nicotinamide]
- IC50 (JAK1): > 1 µM
- IC50 (JAK2): 0.1 to 1 µM
- IC50 (JAK3): 0.01 to 0.1 µM

SMILES: NC(=O)c1cnc(Nc2cccc(N3CCOCC3)c2)cc1NC1(c2ccccc2)CC1 [Example 128, 6-(3-morpholinophenylamino)-4-(1-phenylcyclopropylamino)-nicotinamide]
- IC50 (JAK1): > 1 µM
- IC50 (JAK2): > 1 µM
- IC50 (JAK3): 0.01 to 0.1 µM

SMILES: NC(=O)c1cnc(Nc2cccc(CN3CCOCC3)c2)cc1NC1(c2ccccc2)CC1 [Example 129, 6-(3-(morpholinomethyl)phenylamino)-4-(1-phenylcyclopropylamino)nicotinamide]
- IC50 (JAK1): > 1 µM
- IC50 (JAK2): 0.1 to 1 µM
- IC50 (JAK3): 0.01 to 0.1 µM

SMILES: NC(=O)c1cnc(Nc2ccc(N3CCC(F)(F)CC3)cc2)cc1NC1(c2ccccc2)CC1 [Example 131, 6-(4-(4,4-difluoropiperidin-1-yl)phenylamino)-4-(1-phenylcyclopropylamino)nicotinamide]
- IC50 (JAK1): > 1 µM
- IC50 (JAK2): > 1 µM
- IC50 (JAK3): 0.1 to 1 µM

SMILES: NC(=O)c1cnc(Nc2ccc(OCCN3CCCC3)cc2)cc1NC1(c2ccccc2)CC1 [Example 132, 4-(1-phenylcyclopropylamino)-6-(4-(2-(pyrrolidin-1-yl)ethoxy)phenylamino)nicotinamide]
- IC50 (JAK1): > 1 µM
- IC50 (JAK2): 0.1 to 1 µM
- IC50 (JAK3): 0.01 to 0.1 µM

SMILES: NC(=O)c1cnc(Nc2ccc(OCC(=O)N3CCOCC3)cc2)cc1NC1(c2ccccc2)CC1 [Example 133, 6-(4-(2-morpholino-2-oxoethoxy)phenylamino)-4-(1-phenylcyclopropylamino)nicotinamide]
- IC50 (JAK1): > 1 µM
- IC50 (JAK2): 0.1 to 1 µM
- IC50 (JAK3): 0.01 to 0.1 µM

SMILES: NC(=O)c1cnc(Nc2cccc(OCC(=O)N3CCOCC3)c2)cc1NC1(c2ccccc2)CC1 [Example 134, 6-(3-(2-morpholino-2-oxoethoxy)phenylamino)-4-(1-phenylcyclopropylamino)nicotinamide]
- IC50 (JAK1): > 1 µM
- IC50 (JAK2): > 1 µM
- IC50 (JAK3): 0.01 to 0.1 µM

SMILES: CC(=O)Nc1cccc(Nc2cc(NC3(c4ccccc4)CC3)c(C(N)=O)cn2)c1 [Example 135, 6-(3-acetamidophenylamino)-4-(1-phenylcyclopropylamino)nicotinamide]
- IC50 (JAK1): > 1 µM
- IC50 (JAK2): > 1 µM
- IC50 (JAK3): 0.1 to 1 µM

SMILES: CN1CCC(C(=O)Nc2cc(Nc3cc(NC4(c5ccccc5)CC4)c(C(N)=O)cn3)ccc2Cl)CC1 [Example 136, 6-(4-chloro-3-(1-methylpiperidine-4-carboxamido)phenylamino)-4-(1-phenylcyclopropylamino)nicotinamide]
- IC50 (JAK1): > 1 µM
- IC50 (JAK2): > 1 µM
- IC50 (JAK3): 0.01 to 0.1 µM

SMILES: NC(=O)c1cnc(Nc2ccc(C3CCOCC3)cc2)cc1NC1CCOCC1 [Example 139, 6-(4-(tetrahydro-2H-pyran-4-yl)phenylamino)-4-(tetrahydro-2H-pyran-4-ylamino)nicotinamide]
- IC50 (JAK1): > 1 µM
- IC50 (JAK2): > 1 µM
- IC50 (JAK3): 0.1 to 1 µM

SMILES: NC(=O)c1cnc(Nc2ccc(C3CCOCC3)cc2)cc1NCC1CCOCC1 [Example 140, 4-((tetrahydro-2H-pyran-4-yl)methylamino)-6-(4-(tetrahydro-2H-pyran-4-yl)phenylamino)nicotinamide]
- IC50 (JAK1): > 1 µM
- IC50 (JAK2): 0.1 to 1 µM
- IC50 (JAK3): 0.1 to 1 µM

SMILES: NC(=O)c1cnc(Nc2ccc(C3CCOCC3)cc2)cc1NCC1(O)CCCC1 [Example 141, 4-((1-hydroxycyclopentyl)methylamino)-6-(4-(tetrahydro-2H-pyran-4-yl)phenylamino)nicotinamide]
- IC50 (JAK1): > 1 µM
- IC50 (JAK2): 0.1 to 1 µM
- IC50 (JAK3): 0.01 to 0.1 µM

SMILES: NC(=O)c1cnc(Nc2ccc(C3CCOCC3)cc2)cc1NCc1ccccc1F [Example 142, 4-(2-fluorobenzylamino)-6-(4-(tetrahydro-2H-pyran-4-yl)phenylamino)nicotinamide]
- IC50 (JAK1): > 1 µM
- IC50 (JAK2): 0.1 to 1 µM
- IC50 (JAK3): 0.01 to 0.1 µM

SMILES: CCC(=O)N1CCC(c2ccc(Nc3cc(NCC4CCOCC4)c(C(N)=O)cn3)cc2)CC1 [Example 144, 6-(4-(1-propionylpiperidin-4-yl)phenylamino)-4-((tetrahydro-2H-pyran-4-yl)methylamino)nicotinamide]
- IC50 (JAK1): > 1 µM
- IC50 (JAK2): 0.1 to 1 µM
- IC50 (JAK3): 0.01 to 0.1 µM

SMILES: CCC(=O)N1CCC(c2ccc(Nc3cc(NCc4cccc(F)c4)c(C(N)=O)cn3)cc2)CC1 [Example 145, 4-(3-fluorobenzylamino)-6-(4-(1-propionylpiperidin-4-yl)phenylamino)nicotinamide]
- IC50 (JAK1): > 1 µM
- IC50 (JAK2): 0.01 to 0.1 µM
- IC50 (JAK3): 0.001 to 0.01 µM

SMILES: CCC(=O)N1CCC(c2ccc(Nc3cc(NC4CCOCC4)c(C(N)=O)cn3)cc2)CC1 [Example 146, 6-(4-(1-propionylpiperidin-4-yl)phenylamino)-4-(tetrahydro-2H-pyran-4-ylamino)nicotinamide]
- IC50 (JAK1): > 1 µM
- IC50 (JAK2): 0.1 to 1 µM
- IC50 (JAK3): 0.1 to 1 µM

SMILES: CCC(=O)N1CCC(c2ccc(Nc3cc(NC4CCCC4)c(C(N)=O)cn3)cc2)CC1 [Example 147, 4-(cyclopentylamino)-6-(4-(1-propionylpiperidin-4-yl)phenylamino)nicotinamide]
- IC50 (JAK1): 0.1 to 1 µM
- IC50 (JAK2): 0.1 to 1 µM
- IC50 (JAK3): 0.01 to 0.1 µM

SMILES: CCC(=O)N1CCC(c2ccc(Nc3cc(NCc4ccc(F)c(F)c4)c(C(N)=O)cn3)cc2)CC1 [Example 148, 4-(3,4-difluorobenzylamino)-6-(4-(1-propionylpiperidin-4-yl)phenylamino)nicotinamide]
- IC50 (JAK1): > 1 µM
- IC50 (JAK2): 0.1 to 1 µM
- IC50 (JAK3): 0.1 to 1 µM

— patent publication US20150353495A1 (PORTOLA PHARMACEUTICALS, INC., priority 2010, published 2015)
